{"source": "the supplement of paper PMC10627819", "test_system": "S. aureus Newman", "test": "fitness (endpoint OD595 vs no drug) (fraction); higher = more growth", "outline": "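Fitness is computed from the optical density at which cultures reach stationary phase, divided by the robust mean of no-drug control wells. Any value above 1 is set to 1. Cultures started at OD595 0.01 in 384-well plates with TSB, LB Lennox or CY at 37 °C, and OD595 was read every 30 min for 14 h against a first-reading background.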", "data": [{"smiles": "CC1(C)S[C@@H]2[C@H](NC(=O)Cc3ccccc3)C(=O)N2[C@H]1C(=O)O", "note": "[Penicillin G] + CN(C)c1cc(NC(=O)CNC(C)(C)C)c(O)c2c1C[C@H]1C[C@H]3[C@H](N(C)C)C(O)=C(C(N)=O)C(=O)[C@@]3(O)C(O)=C1C2=O [Tigecycline]", "values": [{"measurement": "fitness", "setting": "first compound 0.0195 µg/mL, partner 0.039 µg/mL", "value": 0.879}, {"measurement": "fitness", "setting": "first compound 0.0195 µg/mL, partner 0.078 µg/mL", "value": 0.898}, {"measurement": "fitness", "setting": "first compound 0.0195 µg/mL, partner 0.156 µg/mL", "value": 0.904}, {"measurement": "fitness", "setting": "first compound 0.039 µg/mL, partner 0.039 µg/mL", "value": 0.879}, {"measurement": "fitness", "setting": "first compound 0.039 µg/mL, partner 0.078 µg/mL", "value": 0.919}, {"measurement": "fitness", "setting": "first compound 0.039 µg/mL, partner 0.156 µg/mL", "value": 0.924}, {"measurement": "fitness", "setting": "first compound 0.078 µg/mL, partner 0.039 µg/mL", "value": 0.864}, {"measurement": "fitness", "setting": "first compound 0.078 µg/mL, partner 0.078 µg/mL", "value": 0.913}, {"measurement": "fitness", "setting": "first compound 0.078 µg/mL, partner 0.156 µg/mL", "value": 0.913}]}, {"smiles": "CC1(C)S[C@@H]2[C@H](NC(=O)Cc3ccccc3)C(=O)N2[C@H]1C(=O)O", "note": "[Penicillin G] + CN(N=O)C(=O)N[C@@H](C=O)[C@@H](O)[C@H](O)[C@H](O)CO [Streptozotocin]", "values": [{"measurement": "fitness", "setting": "first compound 0.0195 µg/mL, partner 0.15 µg/mL", "value": 0.759}, {"measurement": "fitness", "setting": "first compound 0.0195 µg/mL, partner 0.3 µg/mL", "value": 0.623}, {"measurement": "fitness", "setting": "first compound 0.0195 µg/mL, partner 0.6 µg/mL", "value": 0.501}, {"measurement": "fitness", "setting": "first compound 0.039 µg/mL, partner 0.15 µg/mL", "value": 0.731}, {"measurement": "fitness", "setting": "first compound 0.039 µg/mL, partner 0.3 µg/mL", "value": 0.627}, {"measurement": "fitness", "setting": "first compound 0.039 µg/mL, partner 0.6 µg/mL", "value": 0.486}, {"measurement": "fitness", "setting": "first compound 0.078 µg/mL, partner 0.15 µg/mL", "value": 0.709}, {"measurement": "fitness", "setting": "first compound 0.078 µg/mL, partner 0.3 µg/mL", "value": 0.621}, {"measurement": "fitness", "setting": "first compound 0.078 µg/mL, partner 0.6 µg/mL", "value": 0.493}]}, {"smiles": "CC1(C)S[C@@H]2[C@H](NC(=O)Cc3ccccc3)C(=O)N2[C@H]1C(=O)O", "note": "[Penicillin G] + CN[C@@H]1[C@H](O)[C@H](NC)[C@H]2O[C@@]3(O)C(=O)C[C@@H](C)O[C@H]3O[C@@H]2[C@H]1O [Spectinomycin]", "values": [{"measurement": "fitness", "setting": "first compound 0.0195 µg/mL, partner 4 µg/mL", "value": 0.857}, {"measurement": "fitness", "setting": "first compound 0.0195 µg/mL, partner 8 µg/mL", "value": 0.852}, {"measurement": "fitness", "setting": "first compound 0.0195 µg/mL, partner 16 µg/mL", "value": 0.844}, {"measurement": "fitness", "setting": "first compound 0.0195 µg/mL, partner 32 µg/mL, one replicate", "value": 0.462}, {"measurement": "fitness", "setting": "first compound 0.0195 µg/mL, partner 64 µg/mL, one replicate", "value": 0.0086}, {"measurement": "fitness", "setting": "first compound 0.039 µg/mL, partner 4 µg/mL", "value": 0.848}, {"measurement": "fitness", "setting": "first compound 0.039 µg/mL, partner 8 µg/mL", "value": 0.857}, {"measurement": "fitness", "setting": "first compound 0.039 µg/mL, partner 16 µg/mL", "value": 0.806}, {"measurement": "fitness", "setting": "first compound 0.039 µg/mL, partner 32 µg/mL, one replicate", "value": 0.35}, {"measurement": "fitness", "setting": "first compound 0.039 µg/mL, partner 64 µg/mL, one replicate", "value": 0.0192}, {"measurement": "fitness", "setting": "first compound 0.078 µg/mL, partner 4 µg/mL", "value": 0.817}, {"measurement": "fitness", "setting": "first compound 0.078 µg/mL, partner 8 µg/mL", "value": 0.828}, {"measurement": "fitness", "setting": "first compound 0.078 µg/mL, partner 16 µg/mL", "value": 0.802}, {"measurement": "fitness", "setting": "first compound 0.078 µg/mL, partner 32 µg/mL, one replicate", "value": 0.272}, {"measurement": "fitness", "setting": "first compound 0.078 µg/mL, partner 64 µg/mL, one replicate", "value": 0.0551}]}, {"smiles": "CC1(C)S[C@@H]2[C@H](NC(=O)Cc3ccccc3)C(=O)N2[C@H]1C(=O)O", "note": "[Penicillin G] + CN[C@@H]1[C@H](O[C@H]2[C@H](O[C@H]3[C@H](O)[C@@H](O)[C@H](N=C(N)N)[C@@H](O)[C@@H]3N=C(N)N)O[C@@H](C)[C@]2(O)C=O)O[C@@H](CO)[C@H](O)[C@H]1O [Streptomycin]", "values": [{"measurement": "fitness", "setting": "first compound 0.0195 µg/mL, partner 1 µg/mL", "value": 0.903}, {"measurement": "fitness", "setting": "first compound 0.0195 µg/mL, partner 2 µg/mL", "value": 0.829}, {"measurement": "fitness", "setting": "first compound 0.039 µg/mL, partner 1 µg/mL", "value": 0.878}, {"measurement": "fitness", "setting": "first compound 0.039 µg/mL, partner 2 µg/mL", "value": 0.865}, {"measurement": "fitness", "setting": "first compound 0.078 µg/mL, partner 1 µg/mL", "value": 0.887}, {"measurement": "fitness", "setting": "first compound 0.078 µg/mL, partner 2 µg/mL", "value": 0.863}]}, {"smiles": "CC1(C)S[C@@H]2[C@H](NC(=O)Cc3ccccc3)C(=O)N2[C@H]1C(=O)O", "note": "[Penicillin G] + CN[C@H](CC(C)C)C(=O)N[C@H]1C(=O)N[C@@H](CC(N)=O)C(=O)N[C@H]2C(=O)N[C@H]3C(=O)N[C@H](C(=O)N[C@H](C(=O)O)c4cc(O)cc(O)c4-c4cc3ccc4O)[C@H](O)c3ccc(c(Cl)c3)Oc3cc2cc(c3O[C@@H]2O[C@H](CO)[C@@H](O)[C@H](O)[C@H]2O[C@H]2C[C@](C)(N)[C@H](O)[C@H](C)O2)Oc2ccc(cc2Cl)[C@H]1O [Vancomycin]", "values": [{"measurement": "fitness", "setting": "first compound 0.0195 µg/mL, partner 0.1875 µg/mL", "value": 0.895}, {"measurement": "fitness", "setting": "first compound 0.0195 µg/mL, partner 0.375 µg/mL", "value": 0.918}, {"measurement": "fitness", "setting": "first compound 0.0195 µg/mL, partner 0.75 µg/mL", "value": 0.884}, {"measurement": "fitness", "setting": "first compound 0.039 µg/mL, partner 0.1875 µg/mL", "value": 0.885}, {"measurement": "fitness", "setting": "first compound 0.078 µg/mL, partner 0.1875 µg/mL", "value": 0.907}, {"measurement": "fitness", "setting": "first compound 0.078 µg/mL, partner 0.375 µg/mL", "value": 0.926}, {"measurement": "fitness", "setting": "first compound 0.078 µg/mL, partner 0.75 µg/mL", "value": 0.88}]}]}
